These compounds were tested against human P2X7 receptor (Homo sapiens (Human), UniProt Q99572, R270H) (assay: Evaluation of a human P2X7 receptor inhibitory activity (Yo-Pro uptake, BzATP stimulation, FLIPR TETRA)). Settings: 1321N1 cells stably expressing human P2X7 receptor, Yo-Pro fluorescence.
Type: cell-based
Method: Evaluation of a human P2X7 receptor inhibitory activity Stably expressing cell line (1321N1 cell transfected with the human P2X7 receptor gene (GenBank accession number NM_002562.5 including T606C and G952A SNP)) was used. The cells were seeded in a 384-well microtiter plate at a concentration of 8000 cells/well and cultured in the medium (10% fetal bovine serum, 25 mM HEPES, 1% penicillin and streptomycin in DMEM) for one day at 37° C. under 5% carbon dioxide atmosphere. After replacing with 20 μL of the HBSS buffer (20 mM HEPES, 55.6 mM D-glucose, 1× HBSS(−), pH7.4-7.5), 15 μL of 17.3 μM Yo-Pro solution in the HBSS buffer was added. The plate was placed in high-throughput cellular screening system FLIPR TETRA (Molecullar Devices, LLC.) and 15 μL of 130 μM BzATP solution in the HBSS buffer was added. Measurement of fluorescence intensity by FLIPR TETRA was started. After eight minutes, 15 μL of DMSO solutions containing different concentrations of the compound of the present invention as prepared by dilution with the HBSS buffer were dispensed to each well through the built-in automatic dispenser, and the measurement of fluorescence intensity was continued for 20 minutes. The maximum fluorescence intensity without the compound of the present invention is calculated as 0% inhibition and the maximum fluorescence intensity when the reference compound was added is calculated as 100% inhibition. Changing values of fluorescence intensity by the compound of the present invention were calculated by difference between maximum and minimum fluorescence intensity for 20 minutes. Inhibition ratios (%) were calculated from the following equation:
[formula] IC50 was calculated using logistic approximation.
As for IC50 value, value to below 10 nmol/L is represented as “A”, value from 10 nmol/L to below 100 nmol/L is represented as “B”, value from 100 nmol/L to below 500 nmol/L is represented as “C”, and value from 500 nmol/L to below 1 μmol/L is represented as “D”.

Sequence of human P2X7 receptor (Q99572 whole entry R270H): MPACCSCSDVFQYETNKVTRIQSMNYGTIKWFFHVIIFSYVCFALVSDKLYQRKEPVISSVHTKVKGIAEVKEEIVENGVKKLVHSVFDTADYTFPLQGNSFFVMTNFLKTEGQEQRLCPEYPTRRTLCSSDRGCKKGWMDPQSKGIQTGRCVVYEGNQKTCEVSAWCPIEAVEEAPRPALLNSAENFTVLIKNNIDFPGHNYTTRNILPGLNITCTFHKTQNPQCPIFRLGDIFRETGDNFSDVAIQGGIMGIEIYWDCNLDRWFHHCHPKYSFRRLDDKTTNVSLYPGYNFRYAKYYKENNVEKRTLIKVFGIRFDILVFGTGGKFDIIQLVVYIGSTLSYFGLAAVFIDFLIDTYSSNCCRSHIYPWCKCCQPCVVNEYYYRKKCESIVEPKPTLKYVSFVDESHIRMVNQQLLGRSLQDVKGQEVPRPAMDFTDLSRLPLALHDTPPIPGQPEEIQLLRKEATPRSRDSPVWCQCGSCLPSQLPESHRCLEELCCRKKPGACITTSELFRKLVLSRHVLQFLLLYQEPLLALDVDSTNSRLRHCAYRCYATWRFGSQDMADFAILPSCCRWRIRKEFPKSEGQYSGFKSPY

`C=Cc1c2n(c(Nc3ccc(OC)nc3C)nc1=O)C(c1cc(F)cc(F)c1)CC2` (stereo not shown) [Compound I-0091] and `Cc1nc2cc(C)c(Nc3nc(=O)cc4n3C(c3ccccc3)CN4)cc2s1` (stereo not shown) [Compound I-0100] are within 1.5-fold of each other in IC50: 17 nM for the first, 12 nM for the second.

Same assay, conditions: 1321N1 cells stably expressing human P2X7 receptor, Yo-Pro fluorescence, class symbols

`COc1nc(C)c(Nc2nc(=O)cc3n2C(c2cc(F)cc(F)c2)CC3)cc1F` (stereo not shown) [Compound I-0072] and `COc1nc(C)c(Nc2nc(=O)cc3n2C(c2cc(F)c(F)c(F)c2)CC3)cc1F` (stereo not shown) [Compound I-0090] fall in the same range of IC50: 10 to 100 nM for the first, 10 to 100 nM for the second.

First: Cc1cc2c(cc1/N=c1\[nH]c(=O)c(F)c3n1C(c1ccc(F)cc1F)CC3)COC2 (stereo not shown) [Compound I-0073]
Second: Cc1cc2c(cc1/N=c1\[nH]c(=O)c(F)c3n1C(c1ccc(F)cc1)CC3)COC2 (stereo not shown) [Compound I-0074]
The IC50 of the first is higher: 10 to 100 nM for the first, under 10 nM for the second.

`CCOc1ccc(/N=c2\[nH]c(=O)cc3n2C(c2ccc(F)cc2F)CC3)c(CC)n1` (stereo not shown) [Compound I-0075] and `CCOc1ccc(/N=c2\[nH]c(=O)c(F)c3n2C(c2ccc(F)cc2F)CC3)c(CC)n1` (stereo not shown) [Compound I-0076] fall in the same range of IC50: 10 to 100 nM for the first, 10 to 100 nM for the second.

`Cc1cc(OC(F)F)ccc1Nc1nc(=O)cc2n1C(c1ccc(F)cc1)CC2` (stereo not shown) [Compound I-0077] and `COc1ccc(Nc2nc(=O)c(F)c3n2C(c2cc(F)cc(F)c2)CC3)c(C)c1` (stereo not shown) [Compound I-0097] cannot be ordered by IC50: under 10 nM for the first, under 10 nM for the second.

`COc1cnc(C)c(/N=c2\[nH]c(=O)c(F)c3n2C(c2ccc(F)cc2)CC3)c1` (stereo not shown) [Compound I-0078] and `COc1cnc(C)c(/N=c2\[nH]c(=O)cc3n2C(c2ccc(F)cc2)CC3)c1` (stereo not shown) [Compound I-0079] fall in the same range of IC50: 10 to 100 nM for the first, 10 to 100 nM for the second.

First: CCOc1ccc(/N=c2\[nH]c(=O)c(F)c3n2C(c2ccc(F)cc2)CC3)c(C)n1 (stereo not shown) [Compound I-0080]
Second: CCOc1ccc(/N=c2\[nH]c(=O)c(F)c3n2C(c2ccc(F)cc2F)CC3)c(C)n1 (stereo not shown) [Compound I-0081]
The IC50 of the first is lower: under 10 nM for the first, 10 to 100 nM for the second.

`CCOc1nc(C)c(Nc2nc(=O)cc3n2C(c2ccc(F)cc2F)CC3)cc1F` (stereo not shown) [Compound I-0082] and `COc1nc(C)c(Nc2nc(=O)cc3n2C(c2ccc(F)cc2F)CC3)cc1F` (stereo not shown) [Compound I-0084] fall in the same range of IC50: 10 to 100 nM for the first, 10 to 100 nM for the second.

`CCOc1nc(C)c(Nc2nc(=O)c(F)c3n2C(c2ccc(F)cc2F)CC3)cc1F` (stereo not shown) [Compound I-0083] and `CCOc1ccc(Nc2nc(=O)c(F)c3n2C(c2cc(F)cc(F)c2)CC3)c(CC)n1` (stereo not shown) [Compound I-0096] fall in the same range of IC50: 10 to 100 nM for the first, 10 to 100 nM for the second.

`COc1ccc(Nc2nc(=O)c(Cl)c3n2C(c2cc(F)cc(F)c2)CC3)c(C)n1` (stereo not shown) [Compound I-0085] and `COc1ccc(Nc2nc(=O)c(Br)c3n2C(c2cc(F)cc(F)c2)CC3)c(C)n1` (stereo not shown) [Compound I-0086] fall in the same range of IC50: 10 to 100 nM for the first, 10 to 100 nM for the second.

`COc1ccc(Nc2nc(=O)c(C)c3n2C(c2cc(F)cc(F)c2)CC3)c(C)n1` (stereo not shown) [Compound I-0087] and `CCc1c2n(c(Nc3ccc(OC)nc3C)nc1=O)C(c1cc(F)cc(F)c1)CC2` (stereo not shown) [Compound I-0092] fall in the same range of IC50: 10 to 100 nM for the first, 10 to 100 nM for the second.

First: Cc1[nH]c(=O)c(F)cc1Nc1nc(=O)cc2n1C(c1ccc(F)cc1F)CC2 (stereo not shown) [Compound I-0088]
Second: COc1nc(C)c(Nc2nc(=O)cc3n2C(c2ccc(F)c(Cl)c2)CC3)cc1F (stereo not shown) [Compound I-0094]
The IC50 of the first is higher: 500 to 1000 nM for the first, 10 to 100 nM for the second.

Compared with `COc1ccc(Nc2nc(=O)c(-c3ccccc3)c3n2C(c2cc(F)cc(F)c2)CC3)c(C)n1` (stereo not shown) [Compound I-0089], `COc1ccc(C)c(Nc2nc(=O)c(F)c3n2C(c2cc(F)cc(F)c2)CC3)c1` (stereo not shown) [Compound I-0098] is lower in IC50: 10 to 100 nM for the first, under 10 nM for the second. The second is the more potent here.

Compared with `COc1ccc(/N=c2\[nH]c(=O)c(F)c3n2C(c2ccc(F)cc2F)CC3)c(C)n1` (stereo not shown) [Compound I-0093], `COc1ccc(/N=c2\[nH]c(=O)c(F)c3n2C(c2cc(F)cc(F)c2)CC3)c(C)n1` (stereo not shown) [Compound I-0095] is lower in IC50: 100 to 500 nM for the first, 10 to 100 nM for the second.

`Cc1nc2cc(C)c(Nc3nc(=O)c(F)c4n3C(c3cc(F)cc(F)c3)CC4)cc2s1` (stereo not shown) [Compound I-0101] and `Cc1nc2cc(C)c(Nc3nc(=O)cc4n3C(c3ccccc3)CN4C)cc2s1` (stereo not shown) [Compound I-0103] fall in the same range of IC50: 10 to 100 nM for the first, 10 to 100 nM for the second.

In the case of `COc1ccc(Nc2nc(=O)cc3n2C(c2ccccc2)CN3C)c(C)c1` (stereo not shown) [Compound I-0104], the IC50 is reported as 10 to 100 nM.

Source: patent US11066409B2, “Bicyclic nitrogen-containing heterocyclic derivatives and pharmaceutical composition comprising the same” (Shionogi & Co., Ltd., priority 2016, dated 2021)
